This is an account of results in US7803792B2, “Quaternary ammonium compounds” (Asahi Kasei Pharma Corporation, priority 2002, dated 2010).

The experiment has as its system Na+ dependent amino acid transporter. The experiment can be described thus: In vitro assay on Na+ dependent amino acid transporter using Cos 7 cells (Test Example 10). The class given is cell-based. The conditions noted are these: [3H] alanine 8 μM, 37° C., 60 minutes, read-out: IC50 (μM) against alanine transporter. How it is done: In Vitro Assay of Effects of Compounds on Na^+ Dependent Amino Acid Transporter and Na^+ Dependent Water-Soluble Vitamin Transporter Using Cos 7 Cells
In this test example, the in vitro assays of the compound on various transporters using Cos 7 cells were carried out according to the method described in Published Translation of Japanese Patent Application No.10-503830.
That is, […] of Cos 7 cells were inoculated on a 24-well cell plate. Two days later, the cells were washed once with an assay buffer, Hank's buffer solution containing 25 mM glucose and with 10 mM HEPES (ph 7.4), and then the buffer was replaced by an assay buffer to which the test compound was added. After adding to this, [^3H] alanine (trade name; NET-348, manufactured by DAIICHI CHEMICAL CO., LTD.), [^3H] leucine (trade name: NET-460, manufactured by DAIICHI CHEMICAL CO., LTD.), [^3H] phenylalanine (trade name: MT903, MORAVEK), [^3H] methionine (trade name: MT862, MORAVEK), [^3H] lysine (trade name: MT909, MORAKEK), or [^3H] choline (trade name: TRK593, […] BIOSCIENCES CO., LTD.) to a final concentration of 8 μM, the mixture was incubated at 37° C. for 60 minutes to allow Cos 7 cells to incorporate them. […] Measurement of the radioactivity was carried out by introducing the lyzate in 4 ml of liquid scintillation cocktail, stirring the mixture well, and then measuring on a liquid scintillation counter. […]

Broadly, the IC50 is the point on the concentration scale where inhibition reaches its midpoint. Regarding `CCCCC1(CCCC)CS(=O)(=O)c2ccc(N(C)C)cc2C(c2cccc(NC(=S)CCCCC[N+]34CCC(CC3)CC4)c2)N1.[Br-]` (stereo not shown) [Example 1, 1-{5-[3-(3,3-Dibutyl-7-dimethylamino-1,1-dioxo-2,3,4,5-tetrahydro-1,4-benzothiazepin-5-yl)phenylthiocarbamoyl]pentyl}-1-azoniabicyclo[2.2.2]octane bromide], the IC50 was 33 µM.
